According to patent US20240034736A1, “HSD17B13 INHIBITORS AND USES THEREOF” (FL2022-001, Inc., priority 2020, published 2024):

Target: Recombinant human HSD17B13 enzyme (Homo sapiens (Human), UniProt Q7Z5P4)
Assay: HSD17b13 NAD(P)H-Glo Biochemical Assay
Details: for IC50: 50 uM estradiol, 1 mM NAD+, read-out: HSD17β13 IC50
In short: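 Recombinant human HSD17B13 was pre-incubated with inhibitor for 20 min at RT in 20 mM Tris pH 7.4 with 0.002% Tween-20 and 0.02% BSA. Reaction then ran with 50 uM estradiol and 1 mM NAD+ (final) for 3 h at 37° C. NADH formed was detected by NAD(P)H-Glo luminescence after 1 h at RT.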

Recombinant human HSD17B13 enzyme, sequence (Q7Z5P4 20-300): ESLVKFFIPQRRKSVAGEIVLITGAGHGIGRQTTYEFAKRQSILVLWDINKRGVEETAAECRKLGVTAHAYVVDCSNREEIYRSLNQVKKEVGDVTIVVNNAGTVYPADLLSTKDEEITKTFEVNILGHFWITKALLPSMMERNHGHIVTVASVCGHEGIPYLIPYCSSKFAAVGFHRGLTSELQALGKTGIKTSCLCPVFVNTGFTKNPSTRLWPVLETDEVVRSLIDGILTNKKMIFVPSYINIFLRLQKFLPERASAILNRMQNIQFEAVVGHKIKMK

Compound	IC50 [nM]	inhibition at 30 µM (read-out: HSD17β13 inhibition at 30 uM) [%]
Cc1nn(-c2cc(C(F)(F)F)c(F)c(O)c2F)c2cnc(N(C)C3CCOCC3)cc12 [Compound 19.47, 2,6-Difluoro-3-(3-methyl-5-(methyl(tetrahydro-2H-pyran-4-yl)amino)-1H-pyrazolo[3,4-c]pyridin-1-yl)-5-(trifluoromethyl)phenol]	< 100	–
Cc1nn(-c2cc(C(F)(F)F)c(F)c(O)c2F)c2ccc(N3CCOCC34CC4)nc12 [Compound 19.48, 2,6-Difluoro-3-(3-methyl-5-(7-oxa-4-azaspiro[2.5]octan-4-yl)-1H-pyrazolo[4,3-b]pyridine-1-yl)-5-(trifluoromethyl)phenol]	100 to 1000	–
Cc1nn(-c2cc(C(F)(F)F)c(F)c(O)c2F)c2ccc(N(C)C3CCOCC3)nc12 [Compound 19.49, 2,6-Difluoro-3-(3-methyl-5-(methyl(tetrahydro-2H-pyran-4-yl)amino)-1H-pyrazolo[4,3-b]pyridine-1-yl)-5-(trifluoromethyl)phenol]	< 100	–
Cc1nn(-c2cc(C(F)(F)F)c(F)c(O)c2F)c2cc(F)c(N3CCOCC34CC4)nc12 [Compound 19.50, 2,6-Difluoro-3-(6-fluoro-3-methyl-5-(7-oxa-4-azaspiro[2.5]octan-4-yl)-1H-pyrazolo[4,3-b]pyridine-1-yl)-5-(trifluoromethyl)phenol]	< 100	–
COC1CCN(c2cc3c(C)nn(-c4cc(C(F)(F)F)c(F)c(O)c4F)c3cn2)CC1 [Compound 19.51, 2,6-Difluoro-3-(5-(4-methoxypiperidin-1-yl)-3-methyl-1H-pyrazolo[3,4-c]pyridine-1-yl)-5-(trifluoromethyl)phenol]	100 to 1000	–
COC1CCN(c2cc3c(C)nn(-c4cc(C(F)(F)F)c(F)c(O)c4F)c3cn2)C2(CC2)C1 (stereo not shown) [Compound 19.52, 2,6-Difluoro-3-(5-(7-methoxy-4-azaspiro[2.5]octan-4-yl)-3-methyl-1H-pyrazolo[3,4-c]pyridine-1-yl)-5-(trifluoromethyl)phenol]	< 100	–
Cc1nn(-c2cc(C(F)(F)F)c(F)c(O)c2F)c2cnc(N3CCN(S(C)(=O)=O)CC34CC4)cc12 [Compound 19.53, 2,6-Difluoro-3-(3-methyl-5-(7-(methylsulfonyl)-4,7-diazaspiro[2.5]octan-4-yl)-1H-pyrazolo[3,4-c]pyridine-1-yl)-5-(trifluoromethyl)phenol]	< 100	–
CCN(c1cc2c(C)nn(-c3cc(C(F)(F)F)c(F)c(O)c3F)c2cn1)C1CCOCC1 [Compound 19.54, 3-(5-(Ethyl(tetrahydro-2H-pyran-4-yl)amino)-3-methyl-1H-pyrazolo[3,4-c]pyridine-1-yl)-2,6-difluoro-5-(trifluoromethyl)phenol]	< 100	–
Cc1nn(-c2cc(C(F)(F)F)c(F)c(O)c2F)c2cnc(N3CCC(Oc4ccccc4)CC3)cc12 [Compound 19.55, 2,6-Difluoro-3-(3-methyl-5-(4-phenoxypiperidin-1-yl)-1H-pyrazolo[3,4-c]pyridine-1-yl)-5-(trifluoromethyl)phenol]	100 to 1000	–
Cc1nn(-c2cc(C(F)(F)F)c(F)c(O)c2F)c2cnc(N3CCN(S(=O)(=O)c4ccccc4)CC3)cc12 [Compound 19.56, 2,6-Difluoro-3-(3-methyl-5-(4-(phenylsulfonyl)piperazin-1-yl)-1H-pyrazolo[3,4-c]pyridine-1-yl)-5-(trifluoromethyl)phenol]	< 100	–
Cc1nn(-c2cc(C(F)(F)F)c(F)c(O)c2F)c2cnc(N3CCN(S(=O)(=O)c4cnn(C)c4)CC3)cc12 [Compound 19.57, 2,6-Difluoro-3-(3-methyl-5-(4-((1-methyl-1H-pyrazol-4-yl)sulfonyl)piperazin-1-yl)-1H-pyrazolo[3,4-c]pyridin-1-yl)-5-(trifluoromethyl)phenol]	< 100	–
COCCOC1CCN(c2cc3c(C)nn(-c4cc(C(F)(F)F)c(F)c(O)c4F)c3cn2)CC1 [Compound 19.58, 2,6-Difluoro-3-(5-(4-(2-methoxyethoxy)piperidin-1-yl)-3-methyl-1H-pyrazolo[3,4-c]pyridin-1-yl)-5-(trifluoromethyl)phenol]	< 100	–
Cc1nn(-c2cc(C(F)(F)F)c(F)c(O)c2F)c2cnc(N3CCC(OCC4CC4)CC3)cc12 [Compound 19.59, 3-(5-(4-(Cyclopropylmethoxy)piperidin-1-yl)-3-methyl-1H-pyrazolo[3,4-c]pyridine-1-yl)-2,6-difluoro-5-(trifluoromethyl)phenol]	100 to 1000	–
Cc1nn(-c2cc(C(F)(F)F)c(F)c(O)c2F)c2cnc(N3CCC(OCCN(C)C)CC3)cc12 [Compound 19.60, 3-(5-(4-(2-(Dimethylamino)ethoxy)piperidin-1-yl)-3-methyl-1H-pyrazolo[3,4-c]pyridine-1-yl)-2,6-difluoro-5-(trifluoromethyl)phenol]	100 to 1000	–
Cc1nn(-c2cc(O)ccc2C#N)c2cnc(N(C)C3CCOCC3)cc12 [Compound 19.61, 4-Hydroxy-2-(3-methyl-5-(methyl(tetrahydro-2H-pyran-4-yl)amino)-1H-pyrazolo[3,4-c]pyridin-1-yl)benzonitrile]	–	55
Cc1nn(-c2cc(O)c(F)cc2C#N)c2cnc(N(C)C3CCOCC3)cc12 [Compound 19.62, 5-Fluoro-4-hydroxy-2-(3-methyl-5-(methyl(tetrahydro-2H-pyran-4-yl)amino)-1H-pyrazolo[3,4-c]pyridin-1-yl)benzonitrile]	100 to 1000	–

Compound	IC50 [nM]	inhibition at 30 µM (read-out: HSD17β13 inhibition at 30 uM) [%]
Cc1nn(-c2cc(C(F)(F)F)c(F)c(O)c2F)c2cnc(N3CCN(c4ccccc4)CC3)cc12 [Compound 19.63, 2,6-Difluoro-3-(3-methyl-5-(4-phenylpiperazin-1-yl)-1H-pyrazolo[3,4-c]pyridin-1-yl)-5-(trifluoromethyl)phenol]	100 to 1000	–
Cc1nn(-c2cc(C(F)(F)F)c(F)c(O)c2F)c2cnc(N3CCN(c4cnn(C)c4)CC3)cc12 [Compound 19.64, 2,6-Difluoro-3-(3-methyl-5-(4-(1-methyl-1H-pyrazol-4-yl)piperazin-1-yl)-1H-pyrazolo[3,4-c]pyridin-1-yl)-5-(trifluoromethyl)phenol]	100 to 1000	–
Cc1nn(-c2cc(C(F)(F)F)c(F)c(O)c2F)c2cnc(N3CCOCC34CCC4)cc12 [Compound 19.65, 2,6-Difluoro-3-(3-methyl-5-(8-oxa-5-azaspiro[3.5]nonan-5-yl)-1H-pyrazolo[3,4-c]pyridin-1-yl)-5-(trifluoromethyl)phenol]	< 100	–
Cc1nn(-c2cc(C(F)(F)F)c(F)c(O)c2F)c2cc(F)c(N(C)C3CCOCC3)nc12 [Compound 19.66, 2,6-Difluoro-3-(6-fluoro-3-methyl-5-(methyl(tetrahydro-2H-pyran-4-yl)amino)-1H-pyrazolo[4,3-b]pyridin-1-yl)-5-(trifluoromethyl)phenol]	< 100	–
Cc1nn(-c2cc(C(F)(F)F)c(F)c(O)c2F)c2cc(F)c(N3CCOCC34CC4)cc12 [Compound 19.67, 2,6-Difluoro-3-(6-fluoro-3-methyl-5-(7-oxa-4-azaspiro[2.5]octan-4-yl)-1H-indazol-1-yl)-5-(trifluoromethyl)phenol]	< 100	–
Cc1nn(-c2cc(C(F)(F)F)c(F)c(O)c2F)c2cc(F)c(N(C)C3CCOCC3)cc12 [Compound 19.68, 2,6-Difluoro-3-(6-fluoro-3-methyl-5-(methyl(tetrahydro-2H-pyran-4-yl)amino)-1H-indazol-1-yl)-5-(trifluoromethyl)phenol]	< 100	–
Cc1nn(-c2cc(C(F)(F)F)c(F)c(O)c2F)c2ccc(N(C)C3CCOCC3)cc12 [Compound 19.69, 2,6-Difluoro-3-(3-methyl-5-(methyl(tetrahydro-2H-pyran-4-yl)amino)-1H-indazol-1-yl)-5-(trifluoromethyl)phenol]	< 100	–
CN(c1ccc2c(cnn2-c2cc(C(F)(F)F)c(F)c(O)c2F)c1)C1CCOCC1 [Compound 19.70, 2,6-Difluoro-3-(5-(methyl(tetrahydro-2H-pyran-4-yl)amino)-1H-indazol-1-yl)-5-(trifluoromethyl)phenol]	< 100	–
CN(c1ccc2c(c1)c(C(F)(F)F)nn2-c1cc(C(F)(F)F)c(F)c(O)c1F)C1CCOCC1 [Compound 19.71, 2,6-Difluoro-3-(5-(methyl(tetrahydro-2H-pyran-4-yl)amino)-3-(trifluoromethyl)-1H-indazol-1-yl)-5-(trifluoromethyl)phenol]	100 to 1000	–
COc1nn(-c2cc(C(F)(F)F)c(F)c(O)c2F)c2ccc(N(C)C3CCOCC3)cc12 [Compound 19.72, 2,6-Difluoro-3-(3-methoxy-5-(methyl(tetrahydro-2H-pyran-4-yl)amino)-1H-indazol-1-yl)-5-(trifluoromethyl)phenol]	100 to 1000	–
CCc1nn(-c2cc(C(F)(F)F)c(F)c(O)c2F)c2ccc(N(C)C3CCOCC3)cc12 [Compound 19.73, 3-(3-Ethyl-5-(methyl(tetrahydro-2H-pyran-4-yl)amino)-1H-indazol-1-yl)-2,6-difluoro-5-(trifluoromethyl)phenol]	100 to 1000	–
CC(C)c1nn(-c2cc(C(F)(F)F)c(F)c(O)c2F)c2ccc(N(C)C3CCOCC3)cc12 [Compound 19.74, 2,6-Difluoro-3-(3-isopropyl-5-(methyl(tetrahydro-2H-pyran-4-yl)amino)-1H-indazol-1-yl)-5-(trifluoromethyl)phenol]	100 to 1000	–
CN(c1ccc2c(c1)c(C1CC1)nn2-c1cc(C(F)(F)F)c(F)c(O)c1F)C1CCOCC1 [Compound 19.75, 3-(3-Cyclopropyl-5-(methyl(tetrahydro-2H-pyran-4-yl)amino)-1H-indazol-1-yl)-2,6-difluoro-5-(trifluoromethyl)phenol]	100 to 1000	–
CN(C)c1nn(-c2cc(C(F)(F)F)c(F)c(O)c2F)c2ccc(N(C)C3CCOCC3)cc12 [Compound 19.76, 3-(3-(Dimethylamino)-5-(methyl(tetrahydro-2H-pyran-4-yl)amino)-1H-indazol-1-yl)-2,6-difluoro-5-(trifluoromethyl)phenol]	100 to 1000	–
COC1CCN(c2ncc3c(n2)c(C)nn3-c2cc(C(F)(F)F)c(F)c(O)c2F)CC1 [Compound 19.77, 2,6-Difluoro-3-(5-(4-methoxypiperidin-1-yl)-3-methyl-1H-pyrazolo[4,3-d]pyrimidin-1-yl)-5-(trifluoromethyl)phenol]	< 100	–
